Test results reported in the RepoRT retention time repository (doi:10.1016/j.aca.2011.01.006).

Experiment: Waters SunFire C18, 150 × 2.1 mm, 3.5 µm, 35 °C, 0.3 mL/min, estimated dead time 1.1 min; A: water + 0.1% formic acid; B: acetonitrile + 0.1% formic acid; gradient (min/%B) 0/20 5/20 20/50 25/100
Settings: stereoisomer not certain
Work on Cn1cnc2c1c(=O)[nH]c(=O)n2C yielded an LC retention time of 2 min.
In the case of CC12CCC(=O)C=C1CCC1C2C(O)CC2(C)C1CCC2(O)C(=O)CO (configuration not stated), the LC retention time is reported as 12.6 min.
In the case of CN1C(C(=O)Nc2ccccn2)=C(O)c2sccc2S1(=O)=O, the LC retention time is reported as 9 min.
Compound CN(C)CCCOc1nn(Cc2ccccc2)c2ccccc12 has an LC retention time of 9.9 min.
With C=CCC1(O)CCC2C3CCC4=CC(=O)CCC4=C3C=CC21C (configuration not stated) the LC retention time was 22.1 min.
CCCCC1C(=O)N(c2ccccc2)N(c2ccccc2)C1=O showed an LC retention time of 24 min.
With CC12C=CC(=O)C=C1CCC1C2C(O)CC2(C)C1CCC2(O)C(=O)CO (configuration not stated) the LC retention time was 12.3 min.
Compound Cn1c(=O)c2[nH]cnc2n(C)c1=O has an LC retention time of 1.9 min.
With CCC1(c2cnc[nH]2)Cc2ccccc2C1 the LC retention time was 3 min.
Work on CC12CCC(=O)C=C1C=CC1C2CCC2(C)C1CCC21CCC(=O)O1 (configuration not stated) yielded an LC retention time of 22 min.
In the case of Cc1cc(NC(=O)C2=C(O)c3ccccc3S(=O)(=O)N2C)no1, the LC retention time is reported as 21.4 min.
Compound CN1C(C(=O)Nc2ccccn2)=C(O)c2ccccc2S1(=O)=O has an LC retention time of 15.2 min.
Compound C[N+]1(CCC(O)(c2ccccc2)c2cccs2)CCOCC1 (configuration not stated) has an LC retention time of 2.2 min.
Compound CS(=O)(=O)c1ccc(C2=C(c3ccccc3)C(=O)OC2)cc1 has an LC retention time of 16.8 min.
Work on COc1ccccc1OCC(O)COC(N)=O (configuration not stated) yielded an LC retention time of 6.4 min.
For CCCc1nn(C)c2c(=O)[nH]c(-c3cc(S(=O)(=O)N4CCN(C)CC4)ccc3OCC)nc12, the LC retention time was 8.2 min.
For Cn1c(=O)c2c(ncn2C)n(C)c1=O, the LC retention time was 2.4 min.
In the case of CN(C)CCC=C1c2ccccc2CCc2ccccc21, the LC retention time is reported as 10.3 min.
Compound CCCCOc1cc(C(=O)OCCN(CC)CC)ccc1N has an LC retention time of 4.2 min.
Compound COc1cc(OC)c(C(=O)CCCN2CCCC2)c(OC)c1 has an LC retention time of 2 min.
With CC(=O)Nc1nnc(S(N)(=O)=O)s1 the LC retention time was 2.3 min.
Work on CC[N+](C)(CC)CCOC(=O)C(O)(c1ccccc1)C1CCCCC1 (configuration not stated) yielded an LC retention time of 9 min.
In the case of Cc1cccc(C)c1NC1=NCCCS1, the LC retention time is reported as 1.8 min.
CCN(CC)C(=O)c1cccnc1 gave an LC retention time of 2.4 min.
Work on CC[N+]1(C)CCCC(OC(=O)C(O)(c2ccccc2)c2ccccc2)C1 (configuration not stated) yielded an LC retention time of 3.4 min.
Compound CC1CC2C3CCC4=CC(=O)C=CC4(C)C3C(=O)CC2(C)C1(O)C(=O)CO (configuration not stated) has an LC retention time of 15.1 min.
For CCCCCc1cc(O)c2c(c1)OC(C)(C)C1CCC(C(=O)O)=CC21 (configuration not stated), the LC retention time was 25.1 min.
For CC(C)[N+](C)(CCOC(=O)C1c2ccccc2Oc2ccccc21)C(C)C, the LC retention time was 9.8 min.
COc1ccc2nc(S(=O)Cc3ncc(CO)c(OC)c3C)[nH]c2c1 (configuration not stated) gave an LC retention time of 2.7 min.
In the case of CC[N+]1(CC)CCC(=C(c2ccccc2)c2ccccc2)C1C (configuration not stated), the LC retention time is reported as 9.6 min.
Work on CCN(CCO)CCn1c(Cc2ccccc2)nc2c1c(=O)n(C)c(=O)n2C yielded an LC retention time of 1.5 min.
In the case of O=C1CN(N=Cc2ccc(-c3ccc([N+](=O)[O-])cc3)o2)C(=O)N1, the LC retention time is reported as 15.5 min.
Work on CCCN(CCC)S(=O)(=O)c1ccc(C(=O)O)cc1 yielded an LC retention time of 21.3 min.
Work on CCN(CC)CCOCCOC(=O)C1(c2ccccc2)CCCC1 yielded an LC retention time of 10 min.
For CC12CCC(=O)C=C1C=CC1C2CCC2(C)C1CCC2(O)CCC(=O)O (configuration not stated), the LC retention time was 16.1 min.
For CC(C(=O)O)c1cccc(C(=O)c2ccccc2)c1 (configuration not stated), the LC retention time was 19.3 min.
Work on O=C(c1ccccc1)c1ccc2n1CCC2C(=O)O (configuration not stated) yielded an LC retention time of 16.3 min.
In the case of C[N+]12CCC(CC1)C(OC(=O)C(O)(c1ccccc1)c1ccccc1)C2 (configuration not stated), the LC retention time is reported as 3.4 min.
In the case of CC1CC2C(C(O)CC3(C)C2CCC3(O)C(=O)CO)C2(C)C=CC(=O)C=C12 (configuration not stated), the LC retention time is reported as 14.6 min.
Oc1ccc2c(c1)C13CCCCC1(O)C(C2)N(CC1CCC1)CC3 (configuration not stated) showed an LC retention time of 2.5 min.
In the case of CN1C2CCC1C(C(=O)O)C(OC(=O)c1ccccc1)C2 (configuration not stated), the LC retention time is reported as 2.6 min.
CC(C)[N+](C)(CCC(C(N)=O)(c1ccccc1)c1ccccc1)C(C)C gave an LC retention time of 3.4 min.
For COc1ccc(CCN(C)CCCC(C#N)(c2ccc(OC)c(OC)c2)C(C)C)cc1OC (configuration not stated), the LC retention time was 10.6 min.
With CC1(C)OC(=O)C(OCC2CC2)=C1c1ccc(S(C)(=O)=O)cc1 the LC retention time was 20.4 min.
Cn1c(=O)c2c(ncn2CCO)n(C)c1=O gave an LC retention time of 2 min.
CC(=O)CCCCn1c(=O)c2c(ncn2C)n(C)c1=O gave an LC retention time of 5.4 min.
With CCC1(c2ccccc2)C(=O)NCNC1=O the LC retention time was 4.3 min.
With CC(=O)N=c1sc(S(N)(=O)=O)nn1C the LC retention time was 3.5 min.
Work on COc1ccc(CN(CCN(C)C)c2ccccn2)cc1 yielded an LC retention time of 2 min.
In the case of CCOC(=O)C1(c2ccccc2)CCN(C)CC1, the LC retention time is reported as 2.2 min.
CC(C)c1c(CN(C)C(C)Cc2ccccc2)n(C)n(-c2ccccc2)c1=O (configuration not stated) gave an LC retention time of 10.8 min.
CC(C)[N+]1(C)C2CCC1CC(OC(=O)C(CO)c1ccccc1)C2 (configuration not stated) showed an LC retention time of 1.4 min.
For CC(C)(C)NCC(O)COc1nsnc1N1CCOCC1 (configuration not stated), the LC retention time was 1.8 min.
In the case of CCN(CC)CCOC(=O)C(Cc1cccc2ccccc12)CC1CCCO1 (configuration not stated), the LC retention time is reported as 11.1 min.
Cn1c(=O)c2c(ncn2CC(=O)O)n(C)c1=O gave an LC retention time of 2.42 min.
In the case of CCCC(Cc1ccccc1)N1CCCC1 (configuration not stated), the LC retention time is reported as 2.9 min.
With COc1ccccc1OCC(O)CO (configuration not stated) the LC retention time was 5 min.
CCCn1cnc2c1c(=O)n(CCCCC(C)=O)c(=O)n2C showed an LC retention time of 12.1 min.
With Cc1c(NC=O)c(=O)n(-c2ccccc2)n1C the LC retention time was 2.6 min.
In the case of N=C1NC(=O)C(c2ccccc2)O1 (configuration not stated), the LC retention time is reported as 3.4 min.
In the case of CCCCNc1cc(C(=O)O)cc(S(N)(=O)=O)c1Oc1ccccc1, the LC retention time is reported as 20.7 min.
In the case of CN1CCOC(c2ccccc2)c2ccccc2C1 (configuration not stated), the LC retention time is reported as 2.9 min.
Compound CC(=O)SC1CC2=CC(=O)CCC2(C)C2CCC3(C)C(CCC34CCC(=O)O4)C12 (configuration not stated) has an LC retention time of 22 min.
For Cc1onc(-c2ccccc2)c1-c1ccc(S(N)(=O)=O)cc1, the LC retention time was 18.5 min.
COC(=O)C(c1ccccc1)C1CCCCN1 (configuration not stated) gave an LC retention time of 1.8 min.
For COC(=O)C1CC2=CC(=O)CCC2(C)C23OC2CC2(C)C(CCC24CCC(=O)O4)C13 (configuration not stated), the LC retention time was 15.1 min.
For CC12C=CC(=O)C=C1CCC1C2C(=O)CC2(C)C1CCC2(O)C(=O)CO (configuration not stated), the LC retention time was 12.4 min.
Compound Cc1cc(=O)n(-c2ccccc2)n1C has an LC retention time of 4.1 min.
Nc1nc(N)c2nc(-c3ccccc3)c(N)nc2n1 gave an LC retention time of 2.9 min.
CN1CC(=O)N2C(Cc3c([nH]c4ccccc34)C2c2ccc3c(c2)OCO3)C1=O (configuration not stated) showed an LC retention time of 17.4 min.
In the case of CN1C(C(=O)Nc2ccc(O)cn2)=C(O)c2ccccc2S1(=O)=O, the LC retention time is reported as 15.8 min.
Work on CCCCN1CCCCC1C(=O)Nc1c(C)cccc1C (configuration not stated) yielded an LC retention time of 2.9 min.
COc1cccc(C2(O)CCCCC2CN(C)C)c1 (configuration not stated) showed an LC retention time of 1.9 min.
With CN(C)CCCN1c2ccccc2Sc2ccccc21 the LC retention time was 8.8 min.
CCN(CC)CC(=O)Nc1c(C)cccc1C gave an LC retention time of 1.8 min.
Work on O=C1NC(=O)C(c2ccccc2)(c2ccccc2)N1 yielded an LC retention time of 14.7 min.
CC(=O)c1ccc2c(c1)N(CCCN(C)C)c1ccccc1S2 showed an LC retention time of 8.7 min.
In the case of Cc1cccc(Nc2ccncc2S(=O)(=O)NC(=O)NC(C)C)c1, the LC retention time is reported as 8.5 min.
With CN1CC(O)c2cc(N=NC(N)=O)c(O)cc21 (configuration not stated) the LC retention time was 1.7 min.
With CCC(=O)NS(=O)(=O)c1ccc(-c2c(-c3ccccc3)noc2C)cc1 the LC retention time was 21.8 min.
In the case of CN(C)CCOC(c1ccccc1)c1ccccc1, the LC retention time is reported as 5.1 min.
With CN(C)CCCN1c2ccccc2CCc2ccccc21 the LC retention time was 9.6 min.
CCCC[N+]1(C)C2CC(OC(=O)C(CO)c3ccccc3)CC1C1OC12 (configuration not stated) showed an LC retention time of 2.3 min.
With O=C1NC(=O)N(N=Cc2ccc(-c3ccc([N+](=O)[O-])cc3)o2)C1O (configuration not stated) the LC retention time was 15.2 min.
Work on C[N+]1(C)CCCC(OC(=O)C(O)(c2ccccc2)c2ccccc2)C1 (configuration not stated) yielded an LC retention time of 3 min.
With CC1(C)OC2CC3C4CCC5=CC(=O)C=CC5(C)C4C(O)CC3(C)C2(C(=O)CO)O1 (configuration not stated) the LC retention time was 16.5 min.
Compound CS(=O)(=O)Nc1ccc([N+](=O)[O-])cc1Oc1ccccc1 has an LC retention time of 21.9 min.
CCCCNc1ccc(C(=O)OCCN(C)C)cc1 gave an LC retention time of 4.9 min.
Compound CCOC(=O)c1ccc(N)cc1 has an LC retention time of 12.3 min.
COc1ccc2nc(S(=O)Cc3ncc(C)c(OC)c3C)[nH]c2c1 (configuration not stated) showed an LC retention time of 4.2 min.
Work on Cc1cccc(C(C)c2cnc[nH]2)c1C (configuration not stated) yielded an LC retention time of 2.8 min.
CCCC1OC2CC3C4CCC5=CC(=O)C=CC5(C)C4C(O)CC3(C)C2(C(=O)CO)O1 (configuration not stated) showed an LC retention time of 20.1 min.
CCCCC1C(=O)N(c2ccccc2)N(c2ccc(O)cc2)C1=O (configuration not stated) showed an LC retention time of 19.8 min.
With CN(C)CCN(Cc1ccccc1)c1ccccn1 the LC retention time was 1.9 min.
CCCc1nc(C)c2c(=O)[nH]c(-c3cc(S(=O)(=O)N4CCN(CC)CC4)ccc3OCC)nn12 showed an LC retention time of 3.4 min.
In the case of CCC1(O)CCC2C3CCC4=CC(=O)CCC4=C3C=CC21CC (configuration not stated), the LC retention time is reported as 22.9 min.
For CCCCCCCCC(=O)NCc1ccc(O)c(OC)c1, the LC retention time was 22.4 min.
With CCC1(c2ccccc2)C(=O)NC(=O)NC1=O the LC retention time was 4.9 min.
Compound CC(C)(C)C(=O)SCC(=O)C1(O)CCC2C3CCC4=CC(=O)CCC4(C)C3C(O)CC21C (configuration not stated) has an LC retention time of 24 min.
Cn1c(=O)c2c(ncn2CC(O)CO)n(C)c1=O (configuration not stated) gave an LC retention time of 1.9 min.
In the case of Cc1cccc(C)c1NC(=O)C1CCCCN1C (configuration not stated), the LC retention time is reported as 1.8 min.
Compound COc1cc(CNC(=O)CCCCC=CC(C)C)ccc1O has an LC retention time of 22.6 min.
